One compound from patent US20250017889A1, “INHIBITORS OF P1B-TYPE ATPASES” (THE CURATORS OF THE UNIVERSITY OF MISSOURI, priority 2021, published 2025) can be followed below.

The target in assay [1] is T1, ATP7B (Homo sapiens, UniProt P35670).
T1 construct: expressed in transfected cells; host or cells: HEK293 (detergent-free lysate)
T1 sequence (P35670 1-1465): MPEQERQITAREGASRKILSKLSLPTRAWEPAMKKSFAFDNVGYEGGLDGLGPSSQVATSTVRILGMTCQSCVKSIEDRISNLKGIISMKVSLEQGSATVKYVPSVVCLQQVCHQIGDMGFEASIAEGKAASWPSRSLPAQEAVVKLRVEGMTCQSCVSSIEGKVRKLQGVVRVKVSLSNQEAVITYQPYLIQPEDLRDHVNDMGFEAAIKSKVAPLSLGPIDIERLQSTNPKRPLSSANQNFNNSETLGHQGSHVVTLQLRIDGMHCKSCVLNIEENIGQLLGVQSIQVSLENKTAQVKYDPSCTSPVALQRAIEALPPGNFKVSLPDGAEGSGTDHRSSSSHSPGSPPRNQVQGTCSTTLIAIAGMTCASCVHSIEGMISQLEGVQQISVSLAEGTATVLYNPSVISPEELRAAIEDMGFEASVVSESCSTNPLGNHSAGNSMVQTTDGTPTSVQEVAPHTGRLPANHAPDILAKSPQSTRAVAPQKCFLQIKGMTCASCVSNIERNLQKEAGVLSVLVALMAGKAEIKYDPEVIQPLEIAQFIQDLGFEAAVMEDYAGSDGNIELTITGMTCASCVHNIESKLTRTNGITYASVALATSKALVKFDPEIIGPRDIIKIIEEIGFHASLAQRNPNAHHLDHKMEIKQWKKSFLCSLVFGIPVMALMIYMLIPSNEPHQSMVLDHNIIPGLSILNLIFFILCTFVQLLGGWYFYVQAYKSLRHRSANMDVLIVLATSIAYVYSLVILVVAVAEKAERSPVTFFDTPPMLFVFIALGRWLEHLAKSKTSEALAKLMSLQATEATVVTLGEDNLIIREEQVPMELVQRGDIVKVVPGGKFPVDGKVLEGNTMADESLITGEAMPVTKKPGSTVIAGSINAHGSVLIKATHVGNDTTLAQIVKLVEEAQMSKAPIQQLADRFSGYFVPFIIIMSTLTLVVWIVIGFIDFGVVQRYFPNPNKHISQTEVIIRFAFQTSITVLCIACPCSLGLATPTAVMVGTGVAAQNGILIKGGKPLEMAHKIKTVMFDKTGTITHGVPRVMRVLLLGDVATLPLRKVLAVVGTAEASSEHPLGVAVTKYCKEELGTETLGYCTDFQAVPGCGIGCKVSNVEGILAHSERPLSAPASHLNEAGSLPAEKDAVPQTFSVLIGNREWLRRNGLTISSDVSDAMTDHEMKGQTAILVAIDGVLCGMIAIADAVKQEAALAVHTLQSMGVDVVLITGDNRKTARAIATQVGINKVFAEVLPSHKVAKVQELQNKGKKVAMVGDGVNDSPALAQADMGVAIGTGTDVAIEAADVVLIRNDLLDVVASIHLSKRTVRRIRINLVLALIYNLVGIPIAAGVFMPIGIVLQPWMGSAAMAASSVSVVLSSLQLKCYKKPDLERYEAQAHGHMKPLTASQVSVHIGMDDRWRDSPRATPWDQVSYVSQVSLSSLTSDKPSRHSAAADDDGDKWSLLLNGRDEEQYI
Kind of assay: Microscale thermophoresis (MST) binding to GFP-ATP7B in HEK293 cell lysates. Particulars: MST analysis; read-out: affinity for ATP7B. The text has this: Coordinating residues D935 and E798 are predicted to bind copper during transport.

Assay [2] deals with B16 melanoma lung tumors. As to the kind of experiment: Melanin production in B16 melanoma tumors on the lungs of mice. The assay is classed as in vivo, C57BL/6 mice. Particulars: 50 mg/kg subcutaneously every other day for 7 days. The protocol: Previous studies have shown that ATP7A is essential for copper delivery into the secretory pathway to tyrosinase, a copper-dependent enzyme required for melanogenesis. […] To confirm that ATP7A is required for tyrosinase activity, B16 melanoma cells were generated in which the ATP7A gene was deleted by CRISPR-CAS9 to generate ATP7A^KO cells. As expected, tyrosinase activity was absent in the B16 ATP7A^KO cells. […] Wild type B16 melanoma cells were injected by tail vein into C57BL/6 mice to establish metastatic tumors on the lungs. […] Left panel images show the lungs of three different mice immediately after dissection. In control mice, darkly pigmented melanoma nodules were readily apparent on the lungs (white arrows).

The subject of assay [3] is 4T1, B16 and LLC cells. As to the kind of experiment: Sensitivity of cells to elevated copper concentrations. Type of assay: cell-based. Particulars: 10 μM, 48 h. The text has this:
It is well-known that copper export via ATP7A is the major mechanism by which cells are protected against rising copper levels, which is facilitated by Cu-stimulated trafficking of ATP7A from the trans-Golgi to the plasma membrane. Therefore, a predicted consequence of an ATP7A inhibitor would be an increase of the sensitivity of cells to high copper concentrations.

Consider `N#CC(C(=O)Nc1cccc(C(F)(F)F)c1)C(=S)Nc1ccccc1Cl` (stereo not drawn) [MKV3], for which the Kd in assay [1] was found to be 76 nM. Moreover, the “pigment of melanoma nodules on the lungs” value in assay [2] was “very little pigment”. In addition, the copper toxicity entry in assay [3] is on record as “strongly augmented copper toxicity”.
